Source: patent US10766865B2, “PKM2 modulators and methods for their use” (TOLERO PHARMACEUTICALS, INC., priority 2012, dated 2020)

Key:
A549 cells = assay: Cell Proliferation Assay, A549; assay type: cell-based; conditions: Homo sapiens; A549, BME media lacking nonessential amino acids, 72 hours, ATPlite; read-out: Percent viability (EC50), Average
Description: (§1) Cells were seeded at 5000 cells per well (in 96-well plate) in BME media lacking nonessential amino acids+5% dialyzed serum. After 18 hours, DMSO or compound in 0.1% final concentration DMSO was added.
(§2) Percent viability (EC50) of A549 and PC3 cells was tested against certain exemplary compounds according to the above general procedures.

PC3 cells = assay: Cell Proliferation Assay, PC3; assay type: cell-based; conditions: Homo sapiens, PC-3; PC3, BME media lacking nonessential amino acids, 72 hours, ATPlite; read-out: Percent viability (EC50), Average
Description: as §1, §2

PKM2 = PKM2 (Homo sapiens, UniProt P14618); assay: PKM2 Biochemical Assay; conditions: for Max. Resp.: % maximum response in a biochemical assay as compared with Fructose 1,6-bisphosphate
Sequence of PKM2 (P14618 whole entry): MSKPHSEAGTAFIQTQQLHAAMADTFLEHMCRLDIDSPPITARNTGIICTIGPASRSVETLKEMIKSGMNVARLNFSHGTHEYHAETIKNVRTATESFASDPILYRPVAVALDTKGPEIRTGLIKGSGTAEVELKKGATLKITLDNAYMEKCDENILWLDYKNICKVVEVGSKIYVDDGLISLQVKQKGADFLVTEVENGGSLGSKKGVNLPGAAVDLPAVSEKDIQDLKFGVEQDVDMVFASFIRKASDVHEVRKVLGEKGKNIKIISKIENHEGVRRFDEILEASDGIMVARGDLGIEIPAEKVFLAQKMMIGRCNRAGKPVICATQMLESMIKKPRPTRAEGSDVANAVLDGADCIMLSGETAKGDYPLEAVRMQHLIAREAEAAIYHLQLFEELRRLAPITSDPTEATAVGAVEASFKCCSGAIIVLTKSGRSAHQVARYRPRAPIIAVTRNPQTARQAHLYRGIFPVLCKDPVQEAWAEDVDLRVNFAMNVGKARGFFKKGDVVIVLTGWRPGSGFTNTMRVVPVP

Structure (SMILES) | Max. Resp. (PKM2) [%] | other results
O=C(c1cc(C(F)(F)F)n[nH]1)N(Cc1ccccc1Cl)CC1CCN1 (stereo not shown) [Example 227, N-(2-chlorobenzyl)-N-((azetidin-2-yl)methyl)-3-(trifluoromethyl)-1H-pyrazole-5-carboxamide] | 100 | EC50 (A549 cells): 928 nM; EC50 (PC3 cells): 1310 nM
CO[C@H]1CC[C@H](N(Cc2cccc(N)c2)C(=O)c2cc(C(F)(F)F)n[nH]2)CC1 [Example 54] | 93 | EC50 (A549 cells): 102 nM; EC50 (PC3 cells): 193 nM
Nc1cccc(Cl)c1CN(CCN1CCCC(F)C1)C(=O)c1cc(C(F)(F)F)n[nH]1 (stereo not shown) [Example 236, N-(2-amino-6-chlorobenzyl)-3-(trifluoromethyl)-N-(2-(3-fluoropiperidin-1-yl)ethyl)-1H-pyrazole-5-carboxamide] | 73 | EC50 (A549 cells): 8.1 nM; EC50 (PC3 cells): 33 nM
CCCN(CC)CCN(Cc1c(N)cccc1Cl)C(=O)c1cc(C(F)(F)F)n[nH]1 [Example 223, N-(2-chloro-6-aminobenzyl)-N-(2-(ethyl-propylamino)ethyl)-3-(trifluoromethyl)-1H-pyrazole-5-carboxamide] | 100 | EC50 (A549 cells): 33.5 nM; EC50 (PC3 cells): 54 nM
Nc1cccc(Cl)c1CN(CCN1CCC(O)C1)C(=O)c1cc(C(F)(F)F)n[nH]1 (stereo not shown) [Example 234, N-(2-amino-6-chlorobenzyl)-3-(trifluoromethyl)-N-(2-(3-hydroxypyrrolidin-1-yl)ethyl)-1H-pyrazole-5-carboxamide] | 100 | EC50 (A549 cells): 45.8 nM; EC50 (PC3 cells): 92.4 nM
O=C(c1cc(C(F)(F)F)n[nH]1)N(CCC1CCS(=O)(=O)CC1)Cc1ccccc1Cl [Example 75, N-(2-chlorobenzyl)-N-(2-(1,1-dioxidotetrahydro-2H-thiopyran-4-yl)ethyl)-3-(trifluoromethyl)-1H-pyrazole-5-carboxamide] | 102 | EC50 (A549 cells): 148 nM; EC50 (PC3 cells): 223 nM
Nc1cccc(Cl)c1CN(CCN1CCCOCC1)C(=O)c1cc(C(F)(F)F)n[nH]1 [Example 239, N-(2-(1,4-oxazepan-4-yl)ethyl)-N-(2-amino-6-chlorobenzyl)-3-(trifluoromethyl)-1H-pyrazole-5-carboxamide] | 100 | EC50 (A549 cells): 73.1 nM; EC50 (PC3 cells): 129 nM
O=C(c1cc(C(F)(F)F)n[nH]1)N(CCC1CCS(=O)(=O)C1)Cc1ccccc1Cl (stereo not shown) [Example 62, N-(2-chlorobenzyl)-N-(2-(1,1-dioxidotetrahydrothiophen-3-yl)ethyl)-3-(trifluoromethyl)-1H-pyrazole-5-carboxamide] | 105 | EC50 (A549 cells): 108 nM; EC50 (PC3 cells): 166 nM
O=C(c1cc(Cl)n[nH]1)N(CCC1CCS(=O)(=O)CC1)Cc1ccccc1F [Example 81] | 72 | –
CO[C@H]1CC[C@H](N(Cc2ccccc2F)C(=O)c2cc(C(F)(F)F)n[nH]2)CC1 [Example 47, N-(2-FLUOROBENZYL)-N-(TRANS-4-METHOXYCYCLOHEXYL)-3-(TRIFLUOROMETHYL)-1H-PYRAZOLE-5-CARBOXAMIDE] | 89 | EC50 (A549 cells): 188 nM; EC50 (PC3 cells): 383 nM
O=C(c1cc(C(F)(F)F)n[nH]1)N(Cc1ccccc1Cl)CC1CCCN1 (stereo not shown) [Example 232, N-(2-chlorobenzyl)-3-(trifluoromethyl)-N-((pyrrolidin-2-yl)methyl)-1H-pyrazole-5-carboxamide] | 85 | –
CC(c1ccccc1)N(CC1CCC1)C(=O)c1cc(C(F)(F)F)n[nH]1 (stereo not shown) [Example 5, 3-trifluoromethyl-N-(cyclobutylmethyl)-N-(1-phenylethyl)-1H-pyrazole-5-carboxamide] | 106 | –
O=C(c1cc(C(F)(F)F)n[nH]1)N(CCN1CCS(=O)(=O)CC1)Cc1cccc(F)c1F [Example 111] | 64 | –
O=C(c1cc(Br)n[nH]1)N(Cc1cccc2[nH]c(=O)sc12)CC1CCC1 [Example 10, 3-bromo-N-(cyclobutylmethyl)-N-((2-oxo-2,3-dihydrobenzo[d]thiazol-7-yl)methyl)-1H-pyrazole-5-carboxamide] | 127 | –
O=C(c1cc(C(F)(F)F)n[nH]1)N(CCC1CCS(=O)(=O)C1)Cc1ccncc1 (stereo not shown) [Example 89] | 35 | –
O=C(c1cc(C(F)(F)F)n[nH]1)N(Cc1ccc(O)cc1F)C1CCCC1 [Example 132, N-(2-fluoro-4-hydroxybenzyl)-N-cyclopentyl-3-(trifluoromethyl)-1H-pyrazole-5-carboxamide] | 100 | –
O=C(c1cc(C(F)(F)F)n[nH]1)N(CCC1CCSCC1)Cc1ccc(O)cc1F [Example 86] | 98 | –

Structure (SMILES) | Max. Resp. (PKM2) [%] | other results
CO[C@H]1CC[C@H](N(Cc2cccc(F)c2)C(=O)c2cc(C(F)(F)F)n[nH]2)CC1 [Example 48] | 80 | –
O=C(c1cc(C(F)(F)F)n[nH]1)N(CCN1CCCC1)Cc1cccc2nc[nH]c12 [Example 163, N-((1H-benzo[d]imidazol-7-yl)methyl)-3-(trifluoromethyl)-N-(2-(pyrrolidin-1-yl)ethyl)-1H-pyrazole-5-carboxamide] | 100 | –
Nc1cccc(F)c1CN(CCC1CCS(=O)(=O)CC1)C(=O)c1cc(C(F)(F)F)n[nH]1 [Example 91, N-(2-amino-6-fluorobenzyl)-N-(2-(1,1-dioxidotetrahydro-2H-thiopyran-4-yl)ethyl)-3-(trifluoromethyl)-1H-pyrazole-5-carboxamide] | – | EC50 (A549 cells): 20.3 nM; EC50 (PC3 cells): 47.3 nM
Nc1ccc(Cl)c(CN(CCN2CCCCCC2)C(=O)c2cc(C(F)(F)F)n[nH]2)c1 [Example 196, N-(5-amino-2-chlorobenzyl)-N-(2-(azepan-1-yl)ethyl)-3-(trifluoromethyl)-1H-pyrazole-5-carboxamide] | 100 | –
O=C(c1cc(C(F)(F)F)n[nH]1)N(Cc1cccc2[nH]ccc12)NC1CCC1 [Example 135, N-((1H-INDOL-4-YL)METHYL)-N′-CYCLOBUTYL-3-(TRIFLUOROMETHYL)-1H-PYRAZOLE-5-CARBOHYDRAZIDE] | 100 | –
O=C(c1cc(C(F)(F)F)n[nH]1)N(CCN1CCCCCC1)Cc1ccccc1Cl [Example 189, N-(2-chlorobenzyl)-N-(2-(azepan-1-yl)ethyl)-3-(trifluoromethyl)-1H-pyrazole-5-carboxamide] | 100 | –
O=C(c1cc(C(F)(F)F)n[nH]1)N(CCC1CCOC1)Cc1ccccc1F (stereo not shown) [Example 26] | 99 | –
O=C(c1cc(C(F)(F)F)n[nH]1)N(CCC1CCSCC1)Cc1ccccc1Cl [Example 73, N-(2-chlorobenzyl)-N-(2-(tetrahydro-2H-thiopyran-4-yl)ethyl)-3-(trifluoromethyl)-1H-pyrazole-5-carboxamide] | 79 | –
O=C(c1cc(C(F)(F)F)n[nH]1)N(CCC1CCSCC1)Cc1ccccc1F [Example 79] | 95 | –
CCN(CC)CCN(Cc1ccccc1Cl)C(=O)c1cc(C(F)(F)F)n[nH]1 [Example 159, N-(2-chlorobenzyl)-N-(2-(diethylamino)ethyl)-3-(trifluoromethyl)-1H-pyrazole-5-carboxamide] | 100 | –
O=C(c1cc(C(F)(F)F)n[nH]1)N(CCC1CCS(=O)(=O)C1)Cc1cncs1 (stereo not shown) [Example 93] | 26 | –
O=C(c1cc(C(F)(F)F)n[nH]1)N(Cc1cccc(Cl)c1O)CC1CCC1 [Example 141, N-(3-chloro-2-hydroxybenzyl)-N-(cyclobutylmethyl)-3-(trifluoromethyl)-1H-pyrazole-5-carboxamide] | 100 | –
CCOCCCN(Cc1ccccc1Cl)C(=O)c1cc(C(F)(F)F)n[nH]1 [Example 38] | 47 | –
O=C(COP(=O)(O)O)[C@@H](O)[C@H](O)[C@H](O)COP(=O)(O)O [FBP, fructose-1,6-bisphosphate, reference compound] | – | Emax (PKM2; read-out: % FBP (extent of maximal activation, relative to FBP)): 100%; AC50 (PKM2; read-out: AC50 (concentration of half-maximal PKM2 activation), Table 2, n = 6 to 10): 23 ± 8 nM; Maximal PKM2 activity (PKM2; relative to activity in DMSO controls (normalized to 100%), FIG. 1B): approximately 600%
O=C(c1cc(C(F)(F)F)n[nH]1)N(CCC1CCOC1)Cc1ccc(O)cc1F (stereo not shown) [Example 34] | 109 | –
O=C(c1cc(C(F)(F)F)n[nH]1)N(CCN1CCCCCC1)Cc1cccc2nc[nH]c12 [Example 208, N-((1H-benzo[d]imidazol-7-yl)methyl)-N-(2-(azepan-1-yl)ethyl)-3-(trifluoromethyl)-1H-pyrazole-5-carboxamide] | 100 | –
CCN(CC)CCN(Cc1cccc2[nH]cnc12)C(=O)c1cc(C(F)(F)F)n[nH]1 [Example 160, N-((1H-benzo[d]imidazol-4-yl)methyl)-N-(2-(diethylamino)ethyl)-3-(trifluoromethyl)-1H-pyrazole-5-carboxamide] | 100 | –
